# Measurements published in US9708314B2, “Heterocyclic amide compound” (NISSAN CHEMICAL INDUSTRIES, LTD., priority 2013, dated 2017).
# Key:
# Leptochloa chinensis = assay: Test Example 3: herbicidal effect by application to foliage (Wagner pot, water depth 0.1-0.5 cm); type: in vivo; settings: Nineteenth Table; application to foliage; application herbicide amount 320 g/ha
# Outline: (§1)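 Foliar spray, 14-day-old plants, emulsion diluted to target g/ha; rated 3 wk post-application, 0–5 scale (0 ≤5%, 5 ≥90% herbicidal ratio). Greenhouse 25–30 °C, alluvial soil.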
# Cyperus difformis = assay: as above; type: in vivo; settings: Nineteenth Table; application to foliage; application herbicide amount 320 g/ha
# Outline: as §1
# [1] = tested on: Echinochloa crus-galli var. crus-galli; assay: as above; type: in vivo; settings: Nineteenth Table; application to foliage; application herbicide amount 320 g/ha
# Outline: as §1
# Chenopodium album = assay: Test Example 4: herbicidal effect by application to foliage (diluvial soil, plastic box); type: in vivo; settings: application to foliage, application herbicide amount 320 g/ha
# Outline: (§2)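 Plants were grown in sterilized diluvial soil in a greenhouse at 25-30° C for 14 days, then sprayed on stems and leaves with water-diluted emulsion formulation at set rates in g/ha. Weed control and crop injury were scored 3 weeks after treatment on a 0-5 herbicidal-ratio scale, from 0 (≤5%) to 5 (≥90%).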
# Stellaria media = assay: as above; type: in vivo; settings: application to foliage, application herbicide amount 320 g/ha
# Outline: as §2
# Digitaria ciliaris = assay: as above; type: in vivo; settings: application to foliage, application herbicide amount 320 g/ha
# Outline: as §2
# Apera spica-venti. = assay: as above; type: in vivo; settings: application to foliage, application herbicide amount 320 g/ha
# Outline: as §2
# Veronica persica = assay: as above; type: in vivo; settings: application to foliage, application herbicide amount 320 g/ha
# Outline: as §2
# Alopecurus myosuroides = assay: as above; type: in vivo; settings: application to foliage, application herbicide amount 320 g/ha
# Outline: as §2
# Setaria viridis = assay: as above; type: in vivo; settings: application to foliage, application herbicide amount 320 g/ha
# Outline: as §2
# Abutilon theophrasti = assay: as above; type: in vivo; settings: application to foliage, application herbicide amount 320 g/ha
# Outline: as §2
# Amaranthus retroflexus = assay: as above; type: in vivo; settings: application to foliage, application herbicide amount 320 g/ha
# Outline: as §2
compound,measurement,setting,value
"COCc1nnc2c(C(=O)Nc3nnnn3C)ccc(C(F)(F)F)n12 [2-010, 3-(Methoxymethyl)-N-(1-methyl-1H-tetrazol-5-yl)-5-(trifluoromethyl)-[1,2,4]triazol o[4,3-a]pyridine-8-carboxamide]",melting point,,205 to 209 °C
same,D (herbicidal effect grade),Leptochloa chinensis,5 (Herbicidal ratio of 90% or more (almost completely withered))
same,E (herbicidal effect grade),Cyperus difformis,5 (Herbicidal ratio of 90% or more (almost completely withered))
same,H (herbicidal effect grade),[1],5 (Herbicidal ratio of 90% or more (almost completely withered))
same,O: herbicidal effect on Chenopodium album,Chenopodium album,5 (Herbicidal ratio of 90% or more (almost completely withered))
same,P: herbicidal effect on Stellaria media,Stellaria media,5 (Herbicidal ratio of 90% or more (almost completely withered))
same,F: herbicidal effect on Digitaria ciliaris,Digitaria ciliaris,4 (Herbicidal ratio of 70% or more and less than 90%)
same,L: herbicidal effect on Apera spica-venti.,Apera spica-venti.,2 (Herbicidal ratio of 20% or more and less than 40%)
same,R: herbicidal effect on Veronica persica,Veronica persica,5 (Herbicidal ratio of 90% or more (almost completely withered))
same,J: herbicidal effect on Alopecurus myosuroides,Alopecurus myosuroides,3 (Herbicidal ratio of 40% or more and less than 70%)
same,G: herbicidal effect on Setaria viridis,Setaria viridis,3 (Herbicidal ratio of 40% or more and less than 70%)
same,M: herbicidal effect on Abutilon theophrasti,Abutilon theophrasti,5 (Herbicidal ratio of 90% or more (almost completely withered))
same,N: herbicidal effect on Amaranthus retroflexus,Amaranthus retroflexus,5 (Herbicidal ratio of 90% or more (almost completely withered))
